Test results from PubChem BioAssay (NCI).
“And” between values parts separate entries of the source, which are not always exact repeats. Equal values may be shown once.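 Dose response: 5 concentrations. Exposure: 48 h. Format: 96-well plates. Endpoint: linear interpolation; highest concentration if not reached. Here, GI50 denotes the concentration required for 50% inhibition of growth. TGI marks complete inhibition of growth.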

How the values were obtained:
Assay in all cases: NCI tumour cell line growth inhibition, 48 h
[1] = tested on: A498 renal
[2] = tested on: HOP-92 NSCLC
[3] = tested on: M14 melanoma
[4] = tested on: MOLT-4 leukemia
[5] = tested on: NCI-H226 lung
[6] = tested on: OVCAR-5 ovarian
[7] = tested on: SNB-19 CNS
[8] = tested on: SW-620 colon
[9] = tested on: BT-549 breast
[10] = tested on: HS 578T breast

Structure (SMILES)	TGI [1]	TGI [2]	TGI [3]	TGI [4] [µM]	TGI [5] [µM]	TGI [6] [µM]	TGI [7] [µM]	TGI [8] [µM]	GI50 [9]	TGI [9] [µM]	GI50 [2] [µM]	GI50 [3]	GI50 [4]	GI50 [5] [µM]	GI50 [6] [µM]	GI50 [8] [µM]	GI50 [1] [µM]	GI50 [10] [µM]	TGI [10] [µM]	GI50 [7] [µM]
CC(C)(C)OP(=O)(OC(C)(C)C)C(O)c1ccc(/C=C(\C#N)C(N)=O)cc1 (stereo not given)	> 100 µM	> 100 µM	> 100 µM	> 100	> 100	> 100	> 100	> 100	–	–	–	–	–	–	–	–	–	–	–	–
S=c1o[nH]c(-c2ccccc2)c1C=Nc1ccccc1	> 100 µM	–	> 100 µM	> 100	–	> 100	> 100	> 100	–	–	–	–	–	–	–	–	–	–	–	–
COC(=O)c1cccc2c3ccccc3c3ccccc3c12	50 µM	–	> 100 µM	61.7	> 100	> 100	> 100	> 100	–	–	–	–	–	–	–	–	–	–	–	–
CCCCCCCCOCC(O)CO (stereo not given)	> 100 µM	> 100 µM	> 100 µM	> 100	> 100	> 100	> 100	> 100	–	–	–	–	–	–	–	–	–	–	–	–
CC1=CC(C)(c2c[nH]c3ccccc23)CC(C)(C)c2c1[nH]c1ccccc21 (stereo not given)	37.8 µM	–	46.9 µM	27.6	37.1	36.4	74.7	32.1	–	–	–	–	–	–	–	–	–	–	–	–
CC1(C)CCCC2(C)C3C(O)CC2(C)C(O)C31 (stereo not given)	> 100 µM	–	> 100 µM	> 100	> 100	> 100	> 100	> 100	–	–	–	–	–	–	–	–	–	–	–	–
[N-]=[N+]=NCCCn1c2c(c3ccc([N+](=O)[O-])cc3c1=O)C(=O)c1cc3c(cc1-2)OCO3	–	> 33.5 µM	< 0.01 µM	–	2.34	2.1	> 100	> 100	< 0.01 µM	< 0.01	2.56	< 0.01 µM	< 0.0374 µM	< 0.01	0.215	< 0.0285	–	–	–	–
N#Cc1c(-c2ccccc2)cc(-c2ccc(N)cc2)[nH]c1=O	> 100 µM	> 100 µM	> 100 µM	> 100	> 100	> 100	> 100	> 100	–	–	–	–	–	–	–	–	–	–	–	–
COc1cc(-n2cc(-c3ccccc3)[nH]c2=O)cc(OC)c1OC	> 100 µM	83.1 µM	> 100 µM	> 100	> 100	> 100	> 100	> 100	–	–	20.6	> 100 µM	> 100 µM	57.4	> 100	> 100	35.1	29.8	85.4	30.9
Cc1ccccc1NC(=O)/C=N/O	> 100 µM	–	> 100 µM	> 100	> 100	> 100	> 100	> 100	–	–	–	–	–	–	–	–	–	–	–	–
Cc1ccc(S(=O)(=O)N/N=C(\c2nc3ccc([N+](=O)[O-])cc3[nH]c2=O)C(O)c2ccc([N+](=O)[O-])cc2)cc1 (stereo not given)	> 100 µM	> 100 µM	> 100 µM	> 100	–	> 100	> 100	> 100	–	–	–	–	–	–	–	–	–	–	–	–
CC(=O)Oc1ccc2c(c1)[C@@]1(C)CCCC(C)(C)[C@@H]1CC2	–	41.9 µM	33.7 µM	> 100	37.4	40.5	39.4	> 100	36.5 µM	> 100	21.7	18.2 µM	30.9 µM	18.5	22.3	28.2	–	24.7	56.5	19.6
COc1cccc(-c2nn(-c3ccccc3)cc2-c2ccnc(NCCCNC(=O)c3cccc(C(F)(F)F)c3)c2)c1	–	17.4 µM	30.3 µM	9.35	10.7	48.7	31.2	31.5	2.84 µM	9	2.48	4.63 µM	2.63 µM	2.24	11.3	4.35	–	5.6	36.9	6.03
Nc1ccc(-c2cc(C(=O)Nc3nccs3)[nH]c(=S)n2)cc1	> 100 µM	> 100 µM	> 100 µM	> 100	> 100	> 100	> 100	> 100	–	–	–	–	–	–	–	–	–	–	–	–
O=C1C(=C2CCCC2)CCC1CN1CCCCC1 (stereo not given)	35.7 µM	37.7 µM	29.6 µM	41.9	–	39.8	> 100	32.1	–	–	–	–	–	–	–	–	–	–	–	–
CCCCC(C)/C=C/C(=O)C1=C(O)/C(=C/C(=O)O)OC1=O (stereo not given)	> 100 µM	–	> 100 µM	> 100	> 100	> 100	> 100	> 100	–	–	–	–	–	–	–	–	–	–	–	–
O=C1CC(c2c(-c3ccccc3)[nH]c3ccccc23)C(=O)N1c1ccccc1 (stereo not given)	> 100 µM	–	> 100 µM	> 100	> 100	> 100	–	> 100	–	–	–	–	–	–	–	–	–	–	–	–
Nc1c(C(=O)Nc2ccccn2)sc2nc3c(cc12)C(O)CCC3 (stereo not given)	> 50 µM	–	> 50 µM	> 50	> 50	> 50	> 50	> 50	3.47 µM	> 50	–	0.949 µM	2.08 µM	> 50	2.54	1.62	1.53	2.07	> 50	2.13
NCCCOc1cc2ccccc2cc1C(=O)Nc1ccc(Cl)cc1OC(=O)c1cc2ccccc2cc1OCCCN	2.92 µM	3.71 µM	1.26 µM	3.66	–	2.47	2.19	0.345	1.66 µM	3.1	1.64	0.321 µM	0.468 µM	–	1	0.181	1.53	–	–	0.766
Cc1ccc(S(=O)(=O)NC(=O)NCCc2ccccc2)cc1	> 100 µM	> 100 µM	> 100 µM	> 100	> 100	> 100	> 100	> 100	–	–	–	–	–	–	–	–	–	–	–	–
C[C@H]1C/C=C/[C@H]2[C@@H]3O[C@]3(C)[C@@H](C)[C@H]3[C@H](Cc4ccccc4)NC(=O)[C@]32OC(=O)O/C=C/[C@@](C)(O)C1=O	0.0665 µM and 0.527 µM	0.0591 µM and 0.0877 µM	25.4 µM	–	–	> 95.4	–	–	–	–	–	–	0.289 µM and 0.052 µM	0.025	–	–	0.0126	–	–	0.0174

Structure (SMILES)	TGI [1]	TGI [2]	TGI [3]	TGI [4] [µM]	TGI [5] [µM]	TGI [6] [µM]	TGI [7] [µM]	TGI [8] [µM]	GI50 [9]	TGI [9] [µM]	GI50 [2] [µM]	GI50 [3]	GI50 [4]	GI50 [5] [µM]	GI50 [6] [µM]	GI50 [8] [µM]	GI50 [1] [µM]	GI50 [10] [µM]	TGI [10] [µM]	GI50 [7] [µM]
O=c1c2ccccc2[nH]c2c(O)ccc(O)c12	96 µM	34.5 µM	30.3 µM	22.8	66.4	> 100	> 100	36.1	–	–	–	–	–	–	–	–	–	–	–	–
Cc1cc(-c2nnc(/C=C/c3ccc4c(c3)OCO4)o2)n[nH]1	40.7 µM	–	21.1 µM	39.5	> 50	> 50	> 50	19.8	6.78 µM	39.3	–	6.32 µM	3.39 µM	> 50	38.5	2.85	7.54	9.64	47	32.6
CCOC(=O)C1C=C2O[C@@H]3OC4(CCCCC4)O[C@@H]3C2C2C(=O)CCC(=O)[C@@]12C(=O)OC (stereo not given in full)	> 100 µM	> 100 µM	> 100 µM	> 100	> 100	> 100	> 100	> 100	–	–	–	–	–	–	–	–	–	–	–	–
COc1cc(Cl)cc(-c2nn(-c3cccc(NC(=O)Nc4cccc(C(F)(F)F)c4)c3)cc2-c2ccncc2)c1	25.6 µM	–	3.98 µM	4.35	11.5	30.1	35.9	26.8	2.22 µM	5.6	–	1.34 µM	1.14 µM	2.26	3.06	2.3	2.25	4.06	> 100	2.77
Cc1cccc(C)c1NC(=O)CCC/C(CC(=O)c1ccc(F)cc1)=N\NC(=O)C(=O)NN	> 100 µM	–	> 100 µM	> 100	> 100	> 100	> 100	> 100	–	–	–	–	–	–	–	–	–	–	–	–
O=[P+](O)c1ccccn1	> 100 µM	> 100 µM	> 100 µM	> 100	> 100	> 100	> 100	> 100	–	–	–	–	–	–	–	–	–	–	–	–
C1OC1CN1CCN(CC2CO2)CC1 (stereo not given)	> 100 µM	> 100 µM	> 100 µM	> 62.4	> 100	> 100	> 100	> 100	–	–	–	–	–	–	–	–	–	–	–	–
Cc1coc2c1C(=O)C(=O)c1ccccc1-2	3.25 µM	1.28 µM	2.63 µM	6.03	2.55	3.55	–	2.92	–	–	–	–	–	–	–	–	–	–	–	–
Cn1c(=O)nc2n(-c3ccc(Cl)cc3)c(-c3ccccc3)c(-c3ccccc3)nc-2c1=O	> 100 µM	84.5 µM	45.5 µM	53.4	58.8	> 100	> 100	> 100	–	–	–	–	–	–	–	–	–	–	–	–
Cc1cc(N(CCC#N)CCC#N)ccc1N=Nc1cc(Cl)ccc1Cl	34.7 µM	–	11.4 µM	34.9	25.2	27.4	35.9	6.5	–	–	–	–	–	–	–	–	–	–	–	–
CN(C)CCC(/C=C/c1ccccc1)=N\Nc1ccc(Cl)c(Cl)c1	13.8 µM	4.4 µM	7.22 µM	6.63	–	15.6	20.2	13.3	–	–	–	–	–	–	–	–	–	–	–	–
CCC/C=C\C=C\C1(NS(=O)(=O)c2ccc(C)cc2)CCC(C(C)(C)C)CC1 (stereo not given)	46.4 µM	50.9 µM	37.1 µM	24	38	43.8	> 100	35.7	–	–	–	–	–	–	–	–	–	–	–	–
C/C(=N\NC(N)=S)c1ccc(C)c(C)c1	> 100 µM	> 100 µM	> 100 µM	90.2	> 100	> 100	–	> 100	–	–	–	–	–	–	–	–	–	–	–	–
Cc1cccc(C)c1NC(=O)CCc1nnc2s/c(=C\c3ccc(N(C)C)cc3)c(=O)n12	> 100 µM	> 100 µM	> 100 µM	> 100	> 100	> 100	> 100	> 100	–	–	–	–	–	–	–	–	–	–	–	–
CC(C)(C)OC(=O)NCCCCn1c2c(c3ccccc3c1=O)C(=O)c1ccccc1-2	65.3 µM	–	> 100 µM	> 100	51.2	> 100	94.5	> 100	24.5 µM	80.6	–	36.4 µM	4.32 µM	14.1	44.7	25.3	23.4	20.9	52.8	25.1
N#CC1=C(N)NC(=S)NC1c1ccc(-c2ccc(-c3nc4ccccc4o3)cc2)s1 (stereo not given)	–	> 50 µM	30.3 µM	–	–	34.6	> 50	> 50	17.5 µM	47.6	9.84	12.6 µM	–	–	16	21.3	–	16.1	45.1	13.3
O=C1/C(=C/c2ccc3c(c2)OCCO3)CCC/C1=C\c1ccc2c(c1)OCCO2	62.1 µM	> 100 µM	41.3 µM	> 100	–	> 100	> 100	> 100	–	–	–	–	–	–	–	–	–	–	–	–
Nc1ncnc2c1ncn2C1OC(COS(N)(=O)=O)C(O)C1O (stereo not given)	0.0344 µM	0.00619 µM and 0.0611 µM	0.00494 µM and 0.036 µM	0.109	0.00398	–	–	–	0.00266 µM and 0.0266 µM	–	–	0.00214 µM and 0.0181 µM	0.0219 µM	0.00203	–	–	0.0164	–	–	< 0.001
Cc1cc(C(=O)/C=C/c2ccc[nH]2)ccc1-n1ccc(C(F)(F)F)n1	–	> 100 µM	> 100 µM	> 100	> 100	> 100	> 100	> 100	1.36 µM	3.12	11.4	30.7 µM	3.66 µM	30	> 100	10.7	–	11.1	> 100	21.4
O=c1c2cc(Br)cc(Br)c2nc(CCCl)n1-c1ccc(O)c([N+](=O)[O-])c1	52 µM	52.2 µM	31.9 µM	50.5	37.1	33.1	38.2	36.2	–	–	–	–	–	–	–	–	–	–	–	–
CCc1cccc(C(C)C)c1NC(=O)CCl	–	> 100 µM	> 100 µM	> 100	> 100	–	> 100	> 100	–	–	–	–	–	–	–	–	–	–	–	–
